In patent publication US8119589B2, “Modulation of CD4+ T cell responses by a tick saliva protein, Salp15 and polypeptides derived therefrom” (University of North Carolina at Charlotte, priority 2004, dated 2012):

Columns and labels:
CD8+ T cells = test: Lipid raft reorganization (CTB594 staining) in anti-CD3/CD28 activated CD8+ T cells; assay type: cell-based, mouse; conditions: Salp15 pretreatment
Method: For the visualization of lipid rafts, phospho-tyrosine, and cytoskeleton reorganization, CD4^+, CD8^+ or Jurkat cells were cytospun for 10 minutes at 1000 RPM onto positively charged microslides (Fisher Scientific, Hampton, N.H., U.S.A.). The cells were fixed with 3.7% paraformaldehyde (Sigma Chemical Co.) for 15 minutes and stained with CTB594 (Molecular Probes, Eugene, Oreg., U.S.A.), AlexaFluor488 labeled phalloidin (Molecular Probes) or (1:50) biotin-conjugated anti-p-Tyr (PY99) followed by Streptavidin-AlexaFluor594 (1:100, Molecular Probes). For p-LAT and p-PLCγ1 staining, fixed cells were treated with PBS containing 0.1% Triton-X 100 and 100 mM glycine for 15 min at room temperature and stained using rabbit p-LAT (Tyr^191) or rabbit anti-p-PLCγ1 (Tyr^783) probed with anti-rabbit IgG488 (Molecular Probes).
For receptor capping studies, mouse primary B and CD11^+ cells were purified by positive selection using biotin anti-mouse CD45R/B220 clone RA3-6B2 and biotin anti-mouse CD11b clone M1/70 (BD Biosciences Pharmingen) respectively, followed by incubation with magnetic microbeads. The cells were analyzed for receptor capping using 25 μg/mL anti-mouse IgM and 25 μg/mL anti-mouse CD16/CD32 respectively, cross-linked with 25 μg/mL of anti-rat IgG594 for 10 min in the presence or absence of 50 μg/mL of Salp15. […]

[1] = tested on: splenic T cells from CD4-deficient mice and control T cells; test: IL-2 production by anti-CD3/CD28 stimulated T cells from CD4-deficient and B6 mice; assay type: cell-based, mouse; conditions: 50 μg/mL Salp15, 72 hrs
Method: T-cells from CD4-deficient and B6 mice (The Jackson Laboratory, Bar Harbor, Me., U.S.A.) were purified by negative selection and activated for 72 hrs using 5 μg/ml of plate bound anti-CD3 and 1 μg/ml of anti-CD28 in the presence or absence of 50 μg/mL of Salp15. DO11.10 transgenic mouse (The Jackson Laboratory) CD4^+ T cells were purified by negative selection as before and incubated in the presence of 106/mL of syngeneic mitomycin C-treated (50 μg/ml for 40 min at 37° C.) antigen presenting cells (APCs) with 10 μg/mL of ovalbumin in the presence of 0.5, 5.0 and 50 μg/mL of Salp15 for 72 hrs. The supernatants were then collected and IL-2 measured by capture ELISA following the manufacturer's instruction (BD Biosciences Pharmingen).

sCD4 D1-D4 = molecular target: T1, sCD4 D1-D4 (Homo sapiens, UniProt P01730); test: Analytical gel filtration and native gel electrophoresis of Salp15-sCD4; assay type: binding; conditions: native PAGE and Western blot
T1 construct: a sCD4 preparation that contains all four extracellular domains (D1-D4)
Method: Purified sCD4 (D1-D4, 10 μg) and Salp15 (20 μg) were eluted through two SUPERDEX-200™ HR 10/30 gel filtration columns (Amersham Pharmacia Biotech, Piscataway, N.J., U.S.A.) connected in tandem using PBS as equilibration and elution buffer at a flow rate of 0.3 mL/min using an FPLC system (Amersham Pharmacia Biotech) equipped with a liquid chromatography controller LCC-501 Plus and regulated using FPLC director V1.10. To get the elution profile of the Salp15-CD4 complex, Salp15 was incubated with sCD4 before passing it through the gel filtration column. Blue dextran was used to estimate the void volume of the columns, while BSA, ovalbumin and lysozyme were used as molecular weight standards with elution volumes of 14.78 mL, 26.45 mL, 28.45 mL and 39.28 mL, respectively.
Purified sCD4 (D1-D4, 10 μg), Salp15 (10 μg) and sCD4 (10 μg)+Salp15 (10 μg) were diluted into 50% glycerol, 40 mM HEPES (pH 6.5) and 50 mM imidazole (pH 6.5). The native gel [5% Acrylamide:Bis (29:1), 40 mM HEPES (pH 6.5), 50 mM imidazole (pH 6.5) and 10% glycerol] electrophoresis was performed using a 40 mM HEPES (pH 6.5) running buffer and 50 mM imidazole (pH 6.5) at 8 mAmps for 1.5 hours at 4° C. The gel was stained with coomassie blue or transferred to IMMOBILON P® (Millipore) blotting paper for immunoblotting with anti-Poly His-HRP and anti-CD4.

sCD4 = molecular target: T2, sCD4 (Homo sapiens, UniProt P01730); test: Competition for sCD4-HRP binding to plate-bound P11
T2 construct: the extracellular four domains of CD4 (sCD4); purchased Research Diagnostics Inc., Flanders, N.J., U.S.A
Method: Purified sCD4 was coated overnight at 4° C. at the indicated concentrations in 0.1M sodium carbonate buffer (pH 9.5) in 96 well plates. Equimolar amounts of lysozyme were used as a non-specific control. The wells were washed, blocked with 10% FCS/PBS for 1 hr at R.T., and incubated with Salp15 (0.4 μM) for 2 hr at 37° C. Salp15 binding was detected by incubation with horseradish peroxidase (HRP)-conjugated anti-His antibody for 1 hr followed by microwell peroxidase substrate (KPL). The reaction was stopped by adding TMB stop solution (KPL). Chemically synthesized overlapping peptides of Salp15 were purchased from GenScript Corporation (Piscataway, N.J., U.S.A). To study the binding of Salp15 and peptides to sCD4, Salp15 (5 μg) and different peptides (0.5 μg) were coated. The wells were washed and blocked prior to incubation with sCD4-HRP (Research Diagnostics Inc., Flanders, N.J., U.S.A.). For competition assays, indicated concentrations of Salp15 or P11 were added to sCD4-HRP and incubated with plate bound P11 (0.1 μg). To estimate the effect of dithiothreitol (DTT) treatment of Salp15 on binding to sCD4, 0.5 μM Salp15 was treated with 10 mM DTT overnight and immobilized onto microtiter plate followed by blocking and incubation with sCD4-HRP.

Substance: Salp15: secreted salivary protein from Ixodes scapularis, SEQ ID NO: 2; recombinant His-tagged, produced in Drosophila S2 cells
- Lipid raft reorganization (CD8+ T cells): unaffected
- Inhibition (immunosuppressive activity, IL-2) ([1]; T cells from CD4-negative mice): 33%
- Inhibition (immunosuppressive activity, IL-2) ([1]; control T cells (B6 mice)): 85%
- Migration with sCD4 (D1-D4) in native gel (sCD4 D1-D4): co-migrated
- Competition of P11 binding to sCD4 by increasing concentrations of Salp15 (sCD4): could also be competed
